US7879996B2, “Water soluble compounds” (priority 2007, dated 2011)

Test: cationite (cation-exchanging) capacity
Assay type: physicochemical

cationite capacities: 320-370 meqv/mmol
Substance: 2-([60] fullerene [1′,9′:3,4] cyclohexen-1-y1)-5,10,15,20-(tetra magnesium [(4-(N-(4-carboxy butyl) amino) phenyl 2,3-dicarboxylatel]) porphyrin iron (II) [PMC16]
